Results as given in US20180296559A1, “TREATMENT OF AIRWAY SMOOTH MUSCLE DYSFUNCTION” (priority 2016, published 2018).

Legend:
[1] = test system: tracheal airway smooth muscle strips; experiment: Airway smooth muscle strip isometric force generation following acetylcholine; format: cell-based, pig
Source text: FIG. 2. NVP-TAE684 decreases airway smooth muscle force generation. Wild-type airway smooth muscle strip isometric force generation following acetylecholine treatment in muscle strips pretreated with control vehicle (DMSO, black circles) or NVP-TAE684 (grey circles) (n=5 animals per group). Data are shown as mean values with SEM and are fitted with a four-parameter logistic regression algorithm (solid line).
Airway smooth muscle tissue and cells. Trachea from newborn WT […] or CFTR^−/− pigs was excised and placed in modified Krebs Solution containing (mM): 120.8 NaCl, 5.9 KCl, 0.2 CaCl2, 1.2 MgCl2, 1.2 NaH2PO4, 2 NaHCO3, 11 d-glucose, and 10 HEPES, pH 7.4. The trachealis muscle was dissected by removing the cartilage and epithelial layers. For force measurements, strips of trachealis smooth muscle were hung in a tissue perfusion system (Radnoti LLC, Monrovia, Calif.). For cell isolation, the remaining medial layers were minced and digested using a papain dissociation system (Worthington, Lakewood, N.J.) based upon previous studies (10). The minced smooth muscle was suspended in Earle's balanced salt solution (EBSS) containing papain (10 U/ml) and DNase (1000 U/ml) and incubated at 37° C. for 1 hr. Collagenase (0.5mg/m1) was added and after 1 hr the mixture triturated. Primary cells were grown to confluence in a 1:1 mixture of DMEM and Ham's F12 on fibrinogen-coated 6-well plates. All solutions contained 100 U/ml penicillin and 0.1 mg/ml streptomycin. Primary culture cells were allowed to grow for 8-10 d until confluent. […]
Measurement of airway smooth muscle force generation. […] The contractile activity was recorded with Grass isometric force transducers and amplifiers connected to a Biopac data acquisition system (Biopac Systems, Goleta, Calif.). […] The smooth muscle force from NVP-TAE684 or DMSO pretreated strips was determined by obtaining concentration-response curves to acetylcholine (10^−9 to 10^−2 M) in the muscle bath. […]

wild-type mice [2] = experiment: In vivo airway resistance following methacholine challenge; settings: 100 μl of 5 mM, intraperitoneal, daily for 3 days, vs vehicle
Description: FIG. 3. In vivo treatment with NVP-TAE684 decreases cholinergic induced airway hyper-responsiveness. Mice were pretreated with control vehicle (DMSO, black circles) or NVP-TAE684 (grey circles) for 3 days (n=10 animals per group). Airway resistance following methacholine treatment was then determined. Data are shown as mean values with SEM and are fitted with a four-parameter logistic regression algorithm (solid line).
Measurement of in vivo airway resistance. WT mice were pretreated with either PYK2 inhibitor NVP-TAE684 (100 μl of 5 mM, 1% DMSO) or vehicle (1% DMSO) was given via intra-peritoneal injections daily for 3 days prior and including the day of pulmonary measurements. Mice were anesthetized with ketamine (50 or 100 mg/kg) and xylazine (0-10 mg/kg). Following tracheotomy, an 18-gauge cannula was inserted and securely tied with 4.0 braided silk. The animals were then mechanically ventilated with a computer-controlled small-animal ventilator (FlexiVent, SCIREQ, Montreal, Quebec) using a tidal volume of 8 mL/kg at a rate of 180 breaths/min and PEEP of 3.5 cm H2O. Pulmonary resistance was measured by the computer controlled ventilator by interrupting ventilation and imposing broadband low-frequency oscillatory waveforms and then resuming ventilation. […]

wild-type mice [3] = experiment: Morphologic analysis of histological sections of treated mice; format: in vivo
[4] = test system: porcine precision cut lung slices; experiment: Airway contraction in precision cut lung slices in response to methacholine; format: cell-based; settings: WT newborn pig lung slices pretreated overnight with 10 μM compound vs DMSO
Source text: FIG. 1. NVP-TAE684 decreases airway contraction in porcine precision cut lung slices. Percent airway lumen area contraction in response to methacholine in porcine precision cut lung slices pretreated with control vehicle (DMSO, black circles) or NVP-TAE684 (grey circles), normalized to maximal contractile response (n=6 animals per group). Data are shown as mean values with SEM and are fitted with a four-parameter logistic regression algorithm (solid line).
Precision cut lung slice preparation. Precision cut lung slices were isolated as previously described (11) from wild type newborn pigs. Lung slice culture media consisted of Dulbecco's Modified Eagle Medium (Gibco, Big Cabin, Okla.), 10% fetal bovine serum (Gibco, Big Cabin, Okla.), 1% penicillin-streptomycin (5,000 U/mL, Gibco, Big Cabin, Okla.), and 0.1% gentamicin (50 mg/mL, Gibco, Big Cabin, Okla.).
For the porcine lung slice studies, the tracheal bronchus from collected tracheal lobes was cannulated with a 24 G IV catheter (BD Medical) and a tight seal was created using suture. The tracheal lobe was instilled with approximately 10 mL of 2% UltraPure Low Melting Point agarose (Invitrogen, Carlsbad, Calif.) solution and cooled at −20° C. for 30 min. […] For all PCLS experiments, maximal airway contraction was analyzed for each dose by lumen area measurements performed in ImageJ (NIH). […]

Recombinant human PYK2 = Recombinant human PYK2 (Homo sapiens, UniProt Q14289); experiment: ADP-based phosphatase-coupled kinase assay (malachite green); format: biochemical; settings: 10, 25, or 100 μM compound vs DMSO; PYK2 0.5 and 2 μg/ml
Recombinant human PYK2, sequence (Q14289 whole entry): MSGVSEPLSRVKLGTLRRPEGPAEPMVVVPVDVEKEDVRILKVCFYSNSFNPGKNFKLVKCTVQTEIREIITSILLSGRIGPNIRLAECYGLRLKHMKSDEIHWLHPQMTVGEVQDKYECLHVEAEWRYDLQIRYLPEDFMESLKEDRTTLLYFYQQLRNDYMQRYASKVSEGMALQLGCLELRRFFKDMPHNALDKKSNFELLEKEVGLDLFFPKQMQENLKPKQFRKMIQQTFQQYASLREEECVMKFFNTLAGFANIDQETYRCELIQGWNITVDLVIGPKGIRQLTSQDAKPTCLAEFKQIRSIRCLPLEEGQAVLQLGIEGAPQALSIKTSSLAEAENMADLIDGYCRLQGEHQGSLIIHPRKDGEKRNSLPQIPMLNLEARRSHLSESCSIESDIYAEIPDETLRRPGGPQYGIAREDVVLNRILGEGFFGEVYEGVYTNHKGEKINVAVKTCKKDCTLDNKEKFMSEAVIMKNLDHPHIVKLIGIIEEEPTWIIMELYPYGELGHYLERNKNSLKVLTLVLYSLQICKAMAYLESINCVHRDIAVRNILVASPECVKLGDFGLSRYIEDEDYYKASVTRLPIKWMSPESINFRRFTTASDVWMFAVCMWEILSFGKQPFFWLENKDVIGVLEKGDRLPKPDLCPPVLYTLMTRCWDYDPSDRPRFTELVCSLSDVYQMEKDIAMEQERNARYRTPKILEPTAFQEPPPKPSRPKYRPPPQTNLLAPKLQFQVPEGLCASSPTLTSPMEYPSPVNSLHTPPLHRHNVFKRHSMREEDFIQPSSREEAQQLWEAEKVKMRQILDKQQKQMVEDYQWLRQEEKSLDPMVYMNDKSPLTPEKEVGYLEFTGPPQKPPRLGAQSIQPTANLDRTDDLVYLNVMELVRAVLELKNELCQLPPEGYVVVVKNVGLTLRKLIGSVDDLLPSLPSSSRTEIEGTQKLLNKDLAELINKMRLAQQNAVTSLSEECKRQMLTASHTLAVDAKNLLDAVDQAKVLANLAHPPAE
Description: FIG. 4. Recombinant human PYK2 was treated with either DMSO or 10, 25, or 100 μM ceritinib. PYK2 activity was measured by using an ADP-based phosphatase-coupled kinase assay. ADP from PYK2 activity releases an inorganic phosphate via a coupling enzyme and is detected using malachite green reagent. The amount of inorganic phosphate released is proportional to the amount of ADP generated during the kinase reaction. Two concentrations of PYK2 (0.5 and 2 μg/ml) were tested.

[5] = pretreated with 10 μM compound vs DMSO

Row | PYK-2 activity (Recombinant human PYK2) | SMILES | maximal force production ([1]; newborn WT pig tracheal muscle strips pretreated with 10 μM compound, acetylcholine dose response) [mN] | force generation in tracheal smooth muscle strips across all doses of acetylcholine [1, 5] | median effective concentrations of acetylcholine, compound-pretreated vs DMSO-pretreated strips [1, 5] | respiratory response to inhaled methacholine (airway resistance) (wild-type mice [2]) | drug-induced toxicity in histological sections of heart, kidney, and liver (wild-type mice [3]; mouse, in vivo) | changes in epithelia, cartilage or airway smooth muscle layers (lung parenchyma, conducting airways, trachea sections) (wild-type mice [3]; treated mice vs vehicle control mice) | airway narrowing in response to increasing dosages of methacholine, measured by luminal area [4]
1 | – | COc1cc(N2CCC(N3CCN(C)CC3)CC2)ccc1Nc1ncc(Cl)c(Nc2ccccc2S(=O)(=O)C(C)C)n1 [NVP-TAE684] | 40 | decreased force generation | no significant differences | significantly decreased | no evidence of drug-induced toxicity | no significant changes | decreased the airway narrowing
2 | dose-dependent decrease | Cc1cc(Nc2ncc(Cl)c(Nc3ccccc3S(=O)(=O)C(C)C)n2)c(OC(C)C)cc1C1CCNCC1 [ceritinib] | – | – | – | – | – | – | –
